The text below walks through data of publication PMC4745983 (Frontiers in Cell and Developmental Biology, 2016).

One data set concerns E. coli CECT101. The data set is classed as cell-based, Escherichia coli. Particulars: for Activity against E. coli CECT101 relative to nisin: comparison of MIC values / growth curves (Table 6, Figure 3). The method, then: (§1) L. lactis strains were cultured in M17 broth supplemented with 0.5% (w/v) glucose (GM17) for genetic manipulation or in minimal expression medium (MEM) for protein expression at 30°C (Rink et al., [2005]). E. coli CECT101 was grown in Luria-Bertani broth aerated by shaking (200 rpm) at 37°C.
(§2) The indicator strains were first cultured until OD (600 nm) reached 0.5. When testing the MIC value, the culture was diluted 1000 times with the appropriate medium. All the tests were performed with a temperature controlled plate reader (Tecan infinite F200, Tecan Group AG) in a 96-well plate (Greiner Bio-one). The peptides were first diluted in gradient with medium and then mixed with diluted indicator strains. The final concentration of the peptides ranged from 0.00625 to 0.8 μM against L. lactis MG1363 and from 0.25 to 32 μM against E. coli CECT101 in 100 μl volume. The plate was incubated at 30°C or 37°C for 18 h depending on the indicator strain being L. lactis or E. coli, respectively. OD (600 nm) was checked every 30 min. For E. coli, 2 min of shaking was performed before every check. When testing the activity of nisin against E. coli in the presence of EDTA, an EDTA solution was prepared and added to a final concentration of 50, 110, or 250 μM. The minimal concentration of peptide causing no observed growth of indicator strains was considered as the MIC value.

For another data set, the system named is L. lactis MG1363. The data set is classed as cell-based, Lactococcus lactis. The note with it: for MIC value, L. lactis MG1363: MG1363, 18 h. The method, then: as §1, §2
A further data set concerns E. coli ATCC 25922. The note with it: indicator strain E. coli ATCC 25922, [2013], cited from earlier work. An excerpt: Table 1 List of selected peptides with anti-Gram-negative bacteria activity. | column: MIC(μM)
A further data set has as its system E. coli BL21 AI. The note with it: indicator strain E. coli BL21 AI, cited from earlier work. An excerpt:
To increase the activity of nisin against Gram-negative bacteria, both the inhibition activity and trans-outer membrane activity are important. When the first three rings of nisin are intact, the lipid II binding activity is stable. Retaining the pore formation activity is crucial. By further variation of the linker between the nisin part and the tail or searching for more effic ...

Data set [1] can be described thus: supernatant of L. lactis NZ9000 expression culture in MEM medium. Particulars: Lactococcus lactis, 30°C, up to 3 h induction.
The nature of data set [2]: supernatant of L. lactis NZ9000 expression culture in MEM medium, mixed with supernatant containing NisP. Particulars: Lactococcus lactis, 30°C, up to 3 h induction; 1 h with NisP.

Converted amounts (≈) assume the structure as drawn. Like-named read-outs stand apart in the source and are kept apart here. Marks after values point to notes of the source that are not given here. No end group written: not given here.

With `C=C1NC(=O)[C@H]([C@@H](C)CC)NC(=O)[C@H](NC(=O)/C(=C/C)NC(=O)[C@@H](N)[C@@H](C)CC)CSC[C@@H](C(=O)N[C@H]2C(=O)N3CCC[C@H]3C(=O)NCC(=O)N[C@H](C(=O)N[C@@H](CCCCN)C(=O)N[C@H]3C(=O)NCC(=O)N[C@@H](C)C(=O)N[C@@H](CC(C)C)C(=O)N[C@@H](CCSC)C(=O)NCC(=O)N[C@H](C(=O)N[C@@H](CC(N)=O)C(=O)N[C@@H](CCSC)C(=O)N[C@@H](CCCCN)C(=O)N[C@H](C(=O)N[C@@H](Cc4ccc(O)cc4)C(=O)N[C@H](C(=O)N4CCC[C@H]4C(=O)N[C@@H](CCCNC(=N)N)C(=O)N4CCC[C@H]4C(=O)N[C@@H](CCCNC(=N)N)C(=O)N4CCC[C@H]4C(=O)N4CCC[C@H]4C(=O)N[C@@H](Cc4c[nH]cn4)C(=O)N4CCC[C@H]4C(=O)N[C@@H](CCCNC(=N)N)C(=O)O)[C@@H](C)CC)C(C)C)CS[C@H]3C)CS[C@H]2C)NC(=O)[C@H](CC(C)C)NC1=O` [GNT1], the “MIC value, E. coli CECT101” value in the data set on E. coli CECT101 (CECT101, 18 h) was >16 µM. The “Activity against E. coli CECT101 relative to nisin” value with E. coli CECT101 is given as “lower net activity than nisin”. The “MIC value, L. lactis MG1363” value in the data set on L. lactis MG1363 came to 1 µM (≈ 3.61 µg/mL). Turning to `C=C1NC(=O)[C@H]([C@@H](C)CC)NC(=O)[C@H](NC(=O)/C(=C/C)NC(=O)[C@@H](N)[C@@H](C)CC)CSC[C@@H](C(=O)N[C@H]2C(=O)N3CCC[C@H]3C(=O)NCC(=O)N[C@H](C(=O)N[C@@H](CCCCN)C(=O)N[C@H]3C(=O)NCC(=O)N[C@@H](C)C(=O)N[C@@H](CC(C)C)C(=O)N[C@@H](CCSC)C(=O)NCC(=O)N[C@H](C(=O)N[C@@H](CC(N)=O)C(=O)N[C@@H](CCSC)C(=O)N[C@@H](CCCCN)C(=O)N4CCC[C@H]4C(=O)N4CCC[C@H]4C(=O)N[C@@H](Cc4ccc(O)cc4)C(=O)N[C@@H](CC(C)C)C(=O)N4CCC[C@H]4C(=O)N[C@@H](CCCNC(=N)N)C(=O)N4CCC[C@H]4C(=O)N[C@@H](CCCNC(=N)N)C(=O)N4CCC[C@H]4C(=O)N4CCC[C@H]4C(=O)N[C@@H](CCCNC(=N)N)C(=O)N[C@@H](CCCNC(=N)N)C(=O)N[C@H](C(=O)N[C@@H](Cc4ccc(O)cc4)C(=O)N[C@@H](CC(N)=O)C(=O)N[C@@H](CCCNC(=N)N)C(=O)O)[C@@H](C)CC)CS[C@H]3C)CS[C@H]2C)NC(=O)[C@H](CC(C)C)NC1=O` [GNT6], in the data set with E. coli CECT101 (CECT101, 18 h), the “MIC value, E. coli CECT101” value is >16 µM. Also, the “Activity against E. coli CECT101 relative to nisin” value in the data set with E. coli CECT101 is listed as “lower net activity than nisin”. Regarding `C=C1NC(=O)[C@H]([C@@H](C)CC)NC(=O)[C@H](NC(=O)/C(=C/C)NC(=O)[C@@H](N)[C@@H](C)CC)CSC[C@@H](C(=O)N[C@H]2C(=O)N3CCC[C@H]3C(=O)NCC(=O)N[C@H](C(=O)N[C@@H](CCCCN)C(=O)N[C@H]3C(=O)NCC(=O)N[C@@H](C)C(=O)N[C@@H](CC(C)C)C(=O)N[C@@H](CCSC)C(=O)NCC(=O)N[C@H](C(=O)N[C@@H](CC(N)=O)C(=O)N[C@@H](CCSC)C(=O)N[C@@H](CCCCN)C(=O)N4CCC[C@H]4C(=O)N[C@@H](CCCNC(=N)N)C(=O)N4CCC[C@H]4C(=O)N[C@@H](CCCNC(=N)N)C(=O)N4CCC[C@H]4C(=O)N4CCC[C@H]4C(=O)N[C@@H](CCCNC(=N)N)C(=O)N[C@@H](CCCNC(=N)N)C(=O)N[C@H](C(=O)N[C@@H](Cc4ccc(O)cc4)C(=O)N[C@@H](CC(N)=O)C(=O)N[C@@H](CCCNC(=N)N)C(=O)O)[C@@H](C)CC)CS[C@H]3C)CS[C@H]2C)NC(=O)[C@H](CC(C)C)NC1=O` [GNT7], the “MIC value, E. coli CECT101” value in the data set with E. coli CECT101 (CECT101, 18 h) is >16 µM. In addition, the “Activity against E. coli CECT101 relative to nisin” value in the data set on E. coli CECT101 is “lower net activity than nisin”. Moreover, the “MIC value, L. lactis MG1363” value in the data set with L. lactis MG1363 came to 0.2 µM (≈ 0.74 µg/mL). Also, the “Activity against L. lactis relative to GNT16” value in the data set with L. lactis MG1363 (from MIC values) is given as “equal activity as GNT16”.

For the molecule `C=C1NC(=O)[C@H]([C@@H](C)CC)NC(=O)[C@H](NC(=O)/C(=C/C)NC(=O)[C@@H](N)[C@@H](C)CC)CSC[C@@H](C(=O)N[C@H]2C(=O)N3CCC[C@H]3C(=O)NCC(=O)N[C@H](C(=O)N[C@@H](CCCCN)C(=O)N[C@H]3C(=O)NCC(=O)N[C@@H](C)C(=O)N[C@@H](CC(C)C)C(=O)N[C@@H](CCSC)C(=O)NCC(=O)N[C@H](C(=O)N[C@@H](CC(N)=O)C(=O)N[C@@H](CCSC)C(=O)N[C@@H](CCCCN)C(=O)N4CCC[C@H]4C(=O)N[C@@H](CCCNC(=N)N)C(=O)N4CCC[C@H]4C(=O)N4CCC[C@H]4C(=O)N[C@@H](Cc4c[nH]cn4)C(=O)N4CCC[C@H]4C(=O)N[C@@H](CCCNC(=N)N)C(=O)N[C@@H](CC(C)C)C(=O)O)CS[C@H]3C)CS[C@H]2C)NC(=O)[C@H](CC(C)C)NC1=O` [GNT16-3rings], in the data set with E. coli CECT101 (CECT101, 18 h), the “MIC value, E. coli CECT101” value was >32 µM. The “Activity against E. coli CECT101 relative to nisin” value with E. coli CECT101 is listed as “lower net activity than nisin”. The “MIC value, L. lactis MG1363” value against L. lactis MG1363 amounted to 1 µM (≈ 3.09 µg/mL). Turning to `C=C1NC(=O)[C@H]([C@@H](C)CC)NC(=O)[C@H](NC(=O)/C(=C/C)NC(=O)[C@@H](N)[C@@H](C)CC)CSC[C@@H](C(=O)N[C@H]2C(=O)N3CCC[C@H]3C(=O)NCC(=O)N[C@H](C(=O)N[C@@H](CCCCN)C(=O)N[C@H]3C(=O)NCC(=O)N[C@@H](C)C(=O)N[C@@H](CC(C)C)C(=O)N[C@@H](CCSC)C(=O)NCC(=O)N[C@H](C(=O)N[C@@H](CC(N)=O)C(=O)N[C@@H](CCSC)C(=O)N[C@@H](CCCCN)C(=O)N[C@H]4C(=O)N[C@@H](C)C(=O)N[C@H]5C(=O)N[C@@H](CS[C@H]4C)C(=O)N[C@@H](Cc4c[nH]cn4)C(=O)N[C@H](C(=O)N[C@@H](CO)C(=O)NCC(=O)N4CCC[C@H]4C(=O)N[C@@H](CCCNC(=N)N)C(=O)N4CCC[C@H]4C(=O)N4CCC[C@H]4C(=O)N[C@@H](Cc4c[nH]cn4)C(=O)N4CCC[C@H]4C(=O)N[C@@H](CCCNC(=N)N)C(=O)N[C@@H](CC(C)C)C(=O)O)CS[C@H]5C)CS[C@H]3C)CS[C@H]2C)NC(=O)[C@H](CC(C)C)NC1=O` [GNT16SG], the “Activity against E. coli CECT101 relative to nisin” value with E. coli CECT101 is reported as “lower net activity than nisin”. For the same molecule, the “Activity against E. coli relative to GNT16” value with E. coli CECT101 (from MIC values) is “more than four times lower activity”. The “Activity against L. lactis relative to GNT16-3rings (times higher)” value in the data set on L. lactis MG1363 (from MIC values) stood at 2.5 times. One may read the MIC as the smallest concentration in the dilution series that meets the test's criterion for growth inhibition. On to GIGKHVGKALKGLKGLLKGLGEC-NH2 [ADP2], for which the MIC in the data set on E. coli ATCC 25922 (ref Iliæ et al.) is 1^f μM. Turning to GNNRPVYIPQPRPPHPRL [Apidaecin 1b], the MIC is 0.5^b μM with E. coli BL21 AI (ref Berthold et al., [2013]) and 0.5 µM in the data set on E. coli BL21 AI (ref Berthold et al., [2013], listed as apidaecin 1b). On to “Gu-ONNRPVYIPRPRPPHPRL-NH2 [Api 88, derivative of apidaecin 1b with increased positive charges and an amidated C-terminus]”, for which the minimum inhibitory concentration (MIC) with E. coli BL21 AI (ref Czihal et al., [2012]) is 0.2^b μM.

Turning to KKLFKKILKYL-NH2 [R-BP100], in the data set with E. coli ATCC 25922 (ref Torcato et al.), the minimal inhibitory concentration (MIC) was 0.9 ± 0.4^f μM. As for Nisin + GKHVGKALKGLKGLLK, the cleaved bond result in data set [1] is on record as “Val32-Dha33”. Take Ring ABC + NGKPRPYSPRPTSHPRPIRV: the cleaved bond entry in data set [2] is given as “P-I”.

“Ring ABC + NGKPRPYSPRPTSHPRPIRV (bicyclic or more) [GNT8, nisin Ring ABC + drosocin tail]”: the “MIC value, E. coli CECT101” value with E. coli CECT101 (Luria-Bertani broth, 96-well plate, 100 μl, 37°C, 18 h, OD600 every 30 min, peptide 0.25-32 μM, lowest concentration with no observed growth, repeated at least two times) was >16 µM. In the data set on E. coli CECT101, the “Activity against E. coli CECT101 relative to nisin” value is “lower net activity than nisin”.

For Ring ABC + NMKPPYLPRPRPPRRIYNR, in data set [2], the cleaved bond entry is “Y-N and I-Y”. The same measure, in the same setting: for Ring ABC + NMKPRPRPPRRIYNR the value was “N-R and Y-N and I-Y and R-I”. Take VDKPPYLPRPRPPRRIYNR-NH2 [Oncocin]: the MIC in the data set on E. coli BL21 AI (ref Knappe et al., [2010]) is listed as 1.7^b μM.
